Measured values as given in the supplement of paper PMC5908809.

Columns and labels:
[1] = tested on: NK-YS (IL-2 2.5 ng/mL); test: percent inhibition of viability; higher = more inhibition; settings: 72 h
[2] = tested on: DERL-7 (IL-2 2.5 ng/mL); test: as above; settings: 72 h
[3] = tested on: normal primary NK cells, pool 1 (3 donors), resting (IL-2 0 ng/mL); test: as above; settings: 72 h
[4] = tested on: KAI3 (IL-2 2.5 ng/mL); test: as above; settings: 72 h
[5] = tested on: NKL (IL-2 2.5 ng/mL); test: as above; settings: 72 h
[6] = tested on: NK-92 (IL-2 2.5 ng/mL); test: as above; settings: 72 h
[7] = tested on: YT (IL-2 2.5 ng/mL); test: as above; settings: 72 h
[8] = tested on: normal primary NK cells, pool 2 (3 donors) (IL-2 2.5 ng/mL); test: as above; settings: 72 h
[9] = tested on: SNK-6 (IL-2 2.5 ng/mL); test: as above; settings: 72 h
[10] = tested on: normal primary NK cells, pool 3 (3 donors) (IL-2 2.5 ng/mL); test: as above; settings: 72 h
[11] = tested on: IMC-1 (IL-2 20 ng/mL); test: as above; settings: 72 h
[12] = tested on: normal primary NK cells, pool 1 (3 donors) (IL-2 2.5 ng/mL); test: as above; settings: 72 h
[13] = tested on: KHYG-1 (IL-2 2.5 ng/mL); test: as above; settings: 72 h
[14] = tested on: normal NK cells expanded with K562-aAPC; test: drug sensitivity score (DSS) (DSS units); higher = more sensitive; extreme values may be limits of the assay; settings: 72 h; IL-2 2.5 ng/mL
Procedure: (§1)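 Drug sensitivity and resistance testing on K562-aAPC-expanded normal NK cells: 5 concentrations (10-fold steps over a 10,000-fold range), 72 h at 37 °C, viability by CellTiter-Glo normalised to DMSO and benzethonium chloride controls; DSS from the fitted curve.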

[15] = tested on: normal NK cells expanded with K562-aAPC; test: percent inhibition of viability; higher = more inhibition; settings: 72 h, IL-2 2.5 ng/mL
Procedure: as §1

[16] = tested on: NK-YS (IL-2 2.5 ng/mL); test: drug sensitivity score (DSS) (DSS units); higher = more sensitive; extreme values may be limits of the assay; settings: 72 h
[17] = tested on: DERL-7 (IL-2 2.5 ng/mL); test: as above; settings: 72 h
[18] = tested on: normal primary NK cells, pool 1 (3 donors), resting (IL-2 0 ng/mL); test: as above; settings: 72 h
[19] = tested on: KAI3 (IL-2 2.5 ng/mL); test: as above; settings: 72 h
[20] = tested on: NKL (IL-2 2.5 ng/mL); test: as above; settings: 72 h
[21] = tested on: NK-92 (IL-2 2.5 ng/mL); test: as above; settings: 72 h
[22] = tested on: YT (IL-2 2.5 ng/mL); test: as above; settings: 72 h
[23] = tested on: normal primary NK cells, pool 2 (3 donors) (IL-2 2.5 ng/mL); test: as above; settings: 72 h
[24] = tested on: SNK-6 (IL-2 2.5 ng/mL); test: as above; settings: 72 h
[25] = tested on: normal primary NK cells, pool 3 (3 donors) (IL-2 2.5 ng/mL); test: as above; settings: 72 h
[26] = tested on: IMC-1 (IL-2 20 ng/mL); test: as above; settings: 72 h
[27] = tested on: normal primary NK cells, pool 1 (3 donors) (IL-2 2.5 ng/mL); test: as above; settings: 72 h
[28] = tested on: KHYG-1 (IL-2 2.5 ng/mL); test: as above; settings: 72 h

CC(C)C(=O)Nc1ccc([N+](=O)[O-])c(C(F)(F)F)c1 [Flutamide] (max concentration tested 10000 nM)
percent inhibition of viability [%]
Settings | 1 nM | 10 nM | 100 nM | 1000 nM | 10000 nM
[1] | -0.08 | -3.58 | -2.41 | -5.97 | 2.23
[2] | 0.26 | 11.3 | -2.83 | 6.87 | 2.11
[3] | -8.17 | -16.6 | 6.26 | -12.5 | 8.25
[4] | -0.84 | -1.39 | -3.89 | -2.15 | -17.5
[5] | -6.29 | 8.8 | -0.67 | 5.38 | -13.1
[6] | -9.52 | -2.4 | -7.94 | 12.1 | 22.5
[7] | -7.4 | 6 | -4.1 | 6.56 | 19.1
[8] | 7.09 | -4.46 | -3.61 | -2.09 | 6.81
[9] | 21.7 | 46.8 | -5.11 | 31.3 | 24.2
[10] | -0.96 | 0.66 | 3.21 | -0.91 | 1.69
[11] | -0.8 | -1.46 | -1.68 | -2.71 | 12.2
[12] | -3.89 | -10.2 | -4.34 | -7.61 | -4.01
[13] | -7.32 | -1.75 | -9.49 | -4.37 | -1.22
[15] | -8.49 | -7.43 | -8.84 | -8.3 | -13.9

Settings | drug sensitivity score
[14] | 0
[16] | 0
[17] | 0
[18] | 0
[19] | 0
[20] | 0
[21] | 2.07
[22] | 1.25
[23] | 0
[24] | 0
[25] | 0
[26] | 0.02
[27] | 0
[28] | 0

C[C@@H]1COC(Nc2ccc3ncnc(Nc4ccc(OCc5nccs5)c(Cl)c4)c3c2)=N1 [Varlitinib] (max concentration tested 10000 nM)
percent inhibition of viability [%]
Settings | 1 nM | 10 nM | 100 nM | 1000 nM | 10000 nM
[1] | 2.18 | -3.81 | 2.34 | 4.33 | 12.3
[2] | 1.37 | -3.89 | -4.97 | -5.43 | -2.66
[3] | -8.46 | -19.4 | -14.8 | -23.5 | -3.47
[4] | 0.52 | 0.69 | -2.99 | 5.18 | 9.75
[5] | 1.14 | 7.53 | 8.83 | 12.6 | 17.6
[6] | -5.14 | -6.85 | 0.79 | 4.69 | 35.3
[7] | 3.61 | 0.68 | 4.78 | 8.48 | 12.2
[8] | -7.11 | -4.04 | 6.91 | 1.02 | 9.32
[9] | 7.32 | 23.1 | 18.9 | 25.6 | 29.6
[10] | -15.9 | -6.58 | -0.23 | -16.5 | 3.13
[11] | -2.91 | 6.3 | 4.06 | 14.6 | 34
[12] | -1.41 | -12.3 | 1.76 | -7.07 | 4.85
[13] | 0.82 | -0.44 | 4.79 | 10.6 | 19.4
[15] | -1.48 | 1.48 | 0.78 | 6.23 | 6.06

Settings | drug sensitivity score
[14] | 0
[16] | 0.1
[17] | 0
[18] | 0
[19] | 0
[20] | 1.5
[21] | 2.45
[22] | 0.09
[23] | 0
[24] | 8.77
[25] | 0
[26] | 2.92
[27] | 0
[28] | 1.18
